The results in this text go back to patent publication US4985447A, “Certain benzoquinones, naphthoquinones and derivatives thereof which exhibit thromboxane A2 synthetase inhibition or receptor antagonism and the like” (Takeda Chemical Industries, Ltd., priority 1986, dated 1991).

Like-named read-outs stand apart in the source and are kept apart here.

For orientation: inhibition means how much of the control response was suppressed.

In one experiment the target is T1, 5-lipoxygenase (Rattus norvegicus, UniProt P12527).
T1 construct: endogenous in cells; host or cells: RBL-1 cells (rat basophilic leukemia)
T1 sequence (P12527 1-673): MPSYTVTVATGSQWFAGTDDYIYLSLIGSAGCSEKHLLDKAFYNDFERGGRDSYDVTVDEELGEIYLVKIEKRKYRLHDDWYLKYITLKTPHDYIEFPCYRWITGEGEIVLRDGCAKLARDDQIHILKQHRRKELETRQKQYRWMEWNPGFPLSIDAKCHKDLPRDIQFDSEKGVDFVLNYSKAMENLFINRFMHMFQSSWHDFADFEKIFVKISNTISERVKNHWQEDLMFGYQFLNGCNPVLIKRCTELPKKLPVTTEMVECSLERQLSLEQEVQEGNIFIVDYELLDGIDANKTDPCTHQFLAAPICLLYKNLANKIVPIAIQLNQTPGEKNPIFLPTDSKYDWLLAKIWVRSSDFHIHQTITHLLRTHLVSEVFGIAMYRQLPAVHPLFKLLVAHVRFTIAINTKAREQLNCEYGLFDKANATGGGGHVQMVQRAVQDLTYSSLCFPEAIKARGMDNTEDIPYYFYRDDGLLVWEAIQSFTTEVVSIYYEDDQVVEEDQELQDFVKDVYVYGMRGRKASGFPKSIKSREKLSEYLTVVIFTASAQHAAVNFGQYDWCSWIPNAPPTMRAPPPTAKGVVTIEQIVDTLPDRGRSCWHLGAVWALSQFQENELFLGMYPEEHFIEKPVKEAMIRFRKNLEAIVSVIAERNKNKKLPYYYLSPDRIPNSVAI
The experiment in a line: Inhibition of 5-lipoxygenase (production of 5-HETE in RBL-1 cells). Particulars: for inhibition at 1 µM: 10^-6 M; for inhibition at 0.1 µM: 10^-7 M. The format is cell-based, rat (RBL-1, rat basophilic leukemia cells). The procedure: Inhibition of 5-lipoxygenase
10^7 RBL-1 cells (rat basophilic leukemia cells) were suspended in 0.5 ml of MCM (mast cell medium ). To the suspension was subsequently added a solution consisting of 0.5 ml of MCM, 50 μg of arachidonic acid, 10 μg of A-23187 (calcium ionophore, Eli Lilly), and a solution of a quinone compound in ethanol at the final concentration of 1 μM, 0.1 μM, 0.01 μM or 0.001 μM of the test compound was added and allowed to react at 37° C. for 20 minutes. After the reaction, 4 ml of ethanol containing 1,4-dimethoxy-2-methyl-3-(3-methoxypropyl)naphthalene as an internal standard were added, mixed well by shaking, and kept at room temperature for 10 minutes. Then the mixture was centrifuged for 10 minutes (2000 rpm), and the supernatant was separated. The supernatant was concentrated to dryness under reduced pressure. To the concentrate, 0.5 ml of 60% aqueous methanol was added. One hundred μl of this solution was subjected to high performance liquid chromatography for quantitative analysis of 5-HETE (5-hydroxyeicosatetraenoic acid). The amount of 5-HETE was analyzed by measurement of the absorbance at […] with a UV absorption monitor.
Inhibitory effect (IE) of production of 5-HETE is expressed by (1-b/a)×100, wherein a is the peak height or the area corrected with the peak due to the internal standard in the absence of the quinone compound, and b is the peak hight or peak area corrected with the peak due to the internal standard in the presence of the quinone compound.

Experiment [1] has as its target T2, Thromboxane A2 (TXA2) synthetase (Equus caballus, UniProt A0A9L0T8T9).
T2 sequence (A0A9L0T8T9 2-534): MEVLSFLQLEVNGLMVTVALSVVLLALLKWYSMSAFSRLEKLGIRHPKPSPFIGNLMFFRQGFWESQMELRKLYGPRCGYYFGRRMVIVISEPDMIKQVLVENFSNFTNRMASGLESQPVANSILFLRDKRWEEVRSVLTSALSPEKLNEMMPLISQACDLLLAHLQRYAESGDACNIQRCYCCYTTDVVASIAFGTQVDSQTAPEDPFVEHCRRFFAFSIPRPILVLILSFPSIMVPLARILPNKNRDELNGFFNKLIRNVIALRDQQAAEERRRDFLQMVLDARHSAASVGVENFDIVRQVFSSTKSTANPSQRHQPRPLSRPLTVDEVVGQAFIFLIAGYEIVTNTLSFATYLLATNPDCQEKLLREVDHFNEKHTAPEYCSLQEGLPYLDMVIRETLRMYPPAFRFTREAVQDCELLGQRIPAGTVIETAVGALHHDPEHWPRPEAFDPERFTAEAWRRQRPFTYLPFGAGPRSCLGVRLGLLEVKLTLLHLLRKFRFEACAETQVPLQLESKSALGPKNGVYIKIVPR
The experiment in a line: Inhibition of Thromboxane A2 (TXA2) synthetase (horse platelet microsome). The format is biochemical. The note with it: read-out: Inhibition of Thromboxane A2 (TXA2) synthetase. As for the experimental part:
Inhibition of Thromboxane A2 (TXA2) synthetase
(§1) As a preparation of TXA2 synthetase, horse platelet microsome treated with indomethacin (indomethacin-treated horse platelet microsome: IPM) according to the method of Needleman et al. (Science 193 163, 1979) was used. To 60 μl of the solution of IPM in 50 mM Tris buffer(pH 7.5) (containing 140 μg on the protein basis), 60μof a solution containing a drug at a variable concentration was added and kept still at room temperature for 5 minutes. One hundred μl of this mixture was taken, to which 20 μl of a buffer containing 30 ng cf prostaglandin H2 (PGH2) with ice-cooling and kept still at 0° C. for 5 minutes to produce thromboxane A2 (TXA2). The reaction was stopped by addition of 500 μl of Tris buffer, and 50 μl of the resultant solution was subjected to radioimmunoassay of thromboxane B2 (TXB2), a stable metabolite of TXA2 [Shibouta et al. Biochem. Pharmacol. 28 3601, 1979]. The rate of inhibition (%) of TXA2 synthetase was determined from the difference in TXB2 productivity between the untreated group and the treated group.
as §1, with “60 μl of” for “60μof”, “of” for “cf”

In experiment [2] the test system is lipid peroxide in rat brain homogenate. The experiment in a line: Inhibition of production of lipid peroxide in rat brain homogenate. The format is biochemical, rat (Sprague-Dawley). As for the experimental part: Procedure: Sprague-Dawley rats (male, 9-15 weeks old) anesthetized with pentobarbital (50 mg/kg, intraperitoneal administration) were venesected and the brain tissue was resected. The tissue was homogenized in phosphate buffer (pH 7.4), and used as a 5% homogenate (on weight basis). The brain homogenate was allowed to react at 37° C. for 1 hour, and the amount of lipid peroxide produced was determined with the thiobarbituric acid method according to the method of Okawa et al. (Analytical Biochem 95 551, 1979). The drug was added to the 5% homogenate before the reaction at 37° C. for 1 hour so that the final concentration might be 5×10^-7 or 10^-6 M. Inhibition of production of lipid peroxide was expressed as the rate of inhibition in % of the amount produced in the solvent(DMSO)-treated group.

`CC1=C(C)C(=O)C(C(c2ccccc2)c2cccnc2)=C(C)C1=O` (centres unmarked) [Compound No. 2, 3,5,6-trimethyl-2-[phenyl-(3-pyridyl)methyl]-1,4-benzoquinone]: the inhibition at 1 µM at 5-lipoxygenase turned out to be 85%; in experiment [1], 89%. For the same compound, the inhibition at 0.1 µM on 5-lipoxygenase came to 60%; in experiment [1], 45%. Besides, the “Inhibition of production of lipid peroxide in rat brain homogenate” value (“Inhibition … in rat brain homogenate” below) came out at 32% in experiment [2] (5 × 10^-7 M) and 100% in experiment [2] (10^-6 M).
Take `CC(=Cc1ccc(C(C2=C(C)C(=O)C(C)=C(C)C2=O)c2cccnc2)cc1)C(=O)O` (stereo not drawn) [Compound No. 5, 4-[3,5,6-trimethyl-1,4-benzoquinon-2-yl(3-pyridyl)methyl]-α-methylcinnamic acid]: the values for the inhibition at 1 µM (at 5-lipoxygenase; in experiment [1] (10^-6 M)) were 73% and 65%, respectively. Further, the inhibition at 0.1 µM stood at 28% against 5-lipoxygenase and 7% in experiment [1] (10^-7 M). In addition, the “Inhibition … in rat brain homogenate” value worked out at 29% in experiment [2] (5 × 10^-7 M) and 100% in experiment [2] (10^-6 M).
In the case of `CCCCC(C1=C(C)C(=O)C(C)=C(C)C1=O)c1cccnc1` (centres unmarked) [Compound No. 7, 2-[1-(3-pyridyl)pentyl]-3,5,6-trimethyl-1,4-benzoquinone], the inhibition at 1 µM against 5-lipoxygenase amounted to 86%; in experiment [1] (10^-6 M), 32%. In addition, the inhibition at 0.1 µM against 5-lipoxygenase stood at 35%. Further, the results for the “Inhibition … in rat brain homogenate” value in experiment [2] (5 × 10^-7 M) and in experiment [2] (10^-6 M) were 26% and 100%, respectively.
Regarding `CC1=C(C)C(=O)C(Cc2cccnc2)=C(C)C1=O` [Compound No. 14], the inhibition at 1 µM turned out to be 92% against 5-lipoxygenase and 61% in experiment [1] (10^-6 M). In addition, the inhibition at 0.1 µM against 5-lipoxygenase was 80%; in experiment [1] (10^-7 M), 35%. Moreover, the “Inhibition … in rat brain homogenate” value in experiment [2] (5 × 10^-7 M) was found to be 46%; in experiment [2] (10^-6 M), 100%.
For `CCCCCCC(C1=C(C)C(=O)C(C)=C(C)C1=O)c1cccnc1` (centres unmarked) [Compound No. 16, 1-(3,5,6-trimethyl-1,4-benzoquinon-2-yl)-1-(3-pyridyl)heptane], the inhibition at 1 µM against 5-lipoxygenase was determined as 96%; in experiment [1] (10^-6 M), 49%. The inhibition at 0.1 µM at 5-lipoxygenase came to 77%; in experiment [1] (10^-7 M), 6%. The “Inhibition … in rat brain homogenate” value turned out to be 44% in experiment [2] (5 × 10^-7 M) and 100% in experiment [2] (10^-6 M).
Consider `CC1=C(C)C(=O)C(C(CCCCO)c2cccnc2)=C(C)C1=O` (centres unmarked) [compound 8], for which the values for the inhibition at 1 µM (against 5-lipoxygenase; in experiment [1] (10^-6 M)) were 88% and 37%, respectively. In addition, the inhibition at 0.1 µM turned out to be 63% against 5-lipoxygenase and 6% in experiment [1] (10^-7 M). Besides, the “Inhibition … in rat brain homogenate” value was 20% in experiment [2] (5 × 10^-7 M) and 100% in experiment [2] (10^-6 M).
Turning to `CC(=O)OCCCCC(C1=C(C)C(=O)C(C)=C(C)C1=O)c1cccnc1` (centres unmarked) [compound 9], the inhibition at 1 µM turned out to be 90% at 5-lipoxygenase and 54% in experiment [1] (10^-6 M). In addition, the inhibition at 0.1 µM on 5-lipoxygenase is 62%; in experiment [1] (10^-7 M), 18%. Further, the “Inhibition … in rat brain homogenate” value in experiment [2] (5 × 10^-7 M) amounted to 17%; in experiment [2] (10^-6 M), 100%.
As for `CC1=C(C)C(=O)C(C(CCCCC(=O)O)c2cccnc2)=C(C)C1=O` (centres unmarked) [compound 10], the figures for the inhibition at 1 µM (against 5-lipoxygenase; in experiment [1] (10^-6 M)) were 90% and 67%, respectively. Further, the inhibition at 0.1 µM at 5-lipoxygenase is 52%; in experiment [1] (10^-7 M), 24%. Moreover, the “Inhibition … in rat brain homogenate” value in experiment [2] (5 × 10^-7 M) is reported as 13%; in experiment [2] (10^-6 M), 100%.
As for `CC1=C(C)C(=O)C(C(CCCCCO)c2cccnc2)=C(C)C1=O` (centres unmarked) [compound 11], the values for the inhibition at 1 µM (at 5-lipoxygenase; in experiment [1] (10^-6 M)) were 88% and 67%, respectively. Besides, the inhibition at 0.1 µM was determined as 61% against 5-lipoxygenase and 13% in experiment [1] (10^-7 M). Further, the results for the “Inhibition … in rat brain homogenate” value in experiment [2] (5 × 10^-7 M) and in experiment [2] (10^-6 M) were 15% and 100%, respectively.
